Test results as given in ChEMBL document CHEMBL3885861, “Open TG-GATES”.

Species on record: Rattus norvegicus
Experiment: Open TG-GATES - Regimen: Single
Format: toxicity, organism-based, Sprague-Dawley
Design: regimen Single, gender Male, age 6 weeks
Settings: in vivo, po, 20 mg/kg, route gavage, dose level Low; for APTT / Bas / Eos / Fbg / Hb / Ht / Lym / MCH / MCHC / MCV / Mono / Neu / PT / Plat / RBC / Ret / WBC: tissue Blood; for KIDNEY_L / KIDNEY_R / KIDNEY_TOTAL: tissue Kidney; for LIVER: tissue Liver; for A/G / ALP / ALT / AST / BUN / CRE / Ca / Cl / DBIL / GLC / IP / K / LDH / Na / PL / RALB / TBIL / TC / TG / TP / gamma-GTP: tissue Plasma

## Cn1c(=O)c2[nH]cnc2n(C)c1=O.O [THEOPHYLLINE]
3 h
  TERMINAL_BW: 211.4 g
  APTT: 22.4 s
  Bas: 0%
  Eos: 1%
  Fbg: 298.2 mg/dL
  Hb: 13.1 g/dL
  Ht: 39.2%
  Lym: 80.4%
  MCH: 21.1 pg
  MCHC: 33.5%
  MCV: 62.9 fL
  Mono: 2.4%
  Neu: 15.2%
  PT: 15.8 s
  Plat: 125.8 x10_4/uL
  RBC: 623 x10_4/ul
  Ret: 7.2%
  WBC: 83.9 x10_2/uL
  KIDNEY_L: 0.9 g
  KIDNEY_R: 0.9 g
  KIDNEY_TOTAL: 1.8 g
  LIVER: 9.4 g
  A/G: 1.3
  ALP: 1988.6 IU/L
  ALT: 46.8 IU/L
  AST: 75 IU/L
  BUN: 14.4 mg/dL
  CRE: 0.2 mg/dL
  Ca: 10.6 mg/dL
  Cl: 108.8 meq/L
  DBIL: 0 mg/dL
  GLC: 181.8 mg/dL
  IP: 7.2 mg/dL
  K: 3.5 meq/L
  LDH: 159.2 IU/L
  Na: 141.8 meq/L
  PL: 137.4 mg/dL
  RALB: 3.2 g/dL
  TBIL: 0.02 mg/dL
  TC: 80.6 mg/dL
  TG: 45.4 mg/dL
  TP: 5.8 g/dL
  gamma-GTP: 1.2 IU/L
6 h
  TERMINAL_BW: 213.7 g
  APTT: 23.5 s
  Bas: 0%
  Eos: 0.6%
  Fbg: 315.4 mg/dL
  Hb: 13.8 g/dL
  Ht: 41.9%
  Lym: 82.8%
  MCH: 20.8 pg
  MCHC: 33.1%
  MCV: 63 fL
  Mono: 2.4%
  Neu: 12.8%
  PT: 15.5 s
  Plat: 129.9 x10_4/uL
  RBC: 664.6 x10_4/ul
  Ret: 7.4%
  WBC: 99.4 x10_2/uL
  KIDNEY_L: 0.9 g
  KIDNEY_R: 0.9 g
  KIDNEY_TOTAL: 1.9 g
  LIVER: 9 g
  A/G: 1.2
  ALP: 1532.8 IU/L
  ALT: 46 IU/L
  AST: 85.2 IU/L
  BUN: 9.8 mg/dL
  CRE: 0.2 mg/dL
  Ca: 10.5 mg/dL
  Cl: 108.2 meq/L
  DBIL: 0 mg/dL
  GLC: 178.2 mg/dL
  IP: 8.4 mg/dL
  K: 3.8 meq/L
  LDH: 174.8 IU/L
  Na: 141 meq/L
  PL: 126.6 mg/dL
  RALB: 3.1 g/dL
  TBIL: 0.02 mg/dL
  TC: 73.2 mg/dL
  TG: 51.8 mg/dL
  TP: 5.6 g/dL
  gamma-GTP: 1.2 IU/L
9 h
  TERMINAL_BW: 210.6 g
  APTT: 23.2 s
  Bas: 0%
  Eos: 1%
  Fbg: 297 mg/dL
  Hb: 13.5 g/dL
  Ht: 40.9%
  Lym: 78%
  MCH: 20.4 pg
  MCHC: 33%
  MCV: 61.6 fL
  Mono: 2.4%
  Neu: 18%
  PT: 15.6 s
  Plat: 121.1 x10_4/uL
  RBC: 666.6 x10_4/ul
  Ret: 6.9%
  WBC: 89.6 x10_2/uL
  KIDNEY_L: 0.9 g
  KIDNEY_R: 1 g
  KIDNEY_TOTAL: 1.9 g
  LIVER: 8.8 g
  A/G: 1.3
  ALP: 1401 IU/L
  ALT: 43.4 IU/L
  AST: 73.8 IU/L
  BUN: 11.6 mg/dL
  CRE: 0.2 mg/dL
  Ca: 10.9 mg/dL
  Cl: 106 meq/L
  DBIL: 0 mg/dL
  GLC: 170.4 mg/dL
  IP: 8.8 mg/dL
  K: 4.3 meq/L
  LDH: 168 IU/L
  Na: 140.8 meq/L
  PL: 120.8 mg/dL
  RALB: 3.1 g/dL
  TBIL: 0.014 mg/dL
  TC: 66.8 mg/dL
  TG: 51.4 mg/dL
  TP: 5.6 g/dL
  gamma-GTP: 1.2 IU/L
24 h
  TERMINAL_BW: 224.5 g
  APTT: 22.3 s
  Bas: 0%
  Eos: 1%
  Fbg: 316.8 mg/dL
  Hb: 13.7 g/dL
  Ht: 40.8%
  Lym: 80%
  MCH: 20.6 pg
  MCHC: 33.5%
  MCV: 61.5 fL
  Mono: 2.6%
  Neu: 15.2%
  PT: 15.9 s
  Plat: 146.8 x10_4/uL
  RBC: 664.2 x10_4/ul
  Ret: 7.2%
  WBC: 79.6 x10_2/uL
  KIDNEY_L: 0.9 g
  KIDNEY_R: 1 g
  KIDNEY_TOTAL: 1.9 g
  LIVER: 10.2 g
  A/G: 1.2
  ALP: 1615.2 IU/L
  ALT: 38.6 IU/L
  AST: 67.6 IU/L
  BUN: 16.4 mg/dL
  CRE: 0.2 mg/dL
  Ca: 11.1 mg/dL
  Cl: 106.2 meq/L
  DBIL: 0 mg/dL
  GLC: 186 mg/dL
  IP: 7.8 mg/dL
  K: 4.3 meq/L
  LDH: 175.8 IU/L
  Na: 142.6 meq/L
  PL: 145.8 mg/dL
  RALB: 3.1 g/dL
  TBIL: 0.006 mg/dL
  TC: 79.2 mg/dL
  TG: 94.4 mg/dL
  TP: 5.6 g/dL
  gamma-GTP: 1.8 IU/L
